What was measured:
[1] = molecular target: T1, human serotonin transporters (Homo sapiens, UniProt P31645); assay: Serotonin transporter binding assay ([3H]-citalopram competition, HEK-hSERT cell membranes); conditions: 1 nM [3H]-citalopram, 1 hr at 25° C., read-out: SERT IC50
T1 construct: expressed in transfected cells
Method: Serotonin transporter binding assay. HEK-293 cells that stably express human serotonin transporters (HEK-hSERT cells) were grown at 37° C. in 5% CO2 as a monolayer in medium consisting of EMEM supplemented with 10% fetal bovine serum and G418 sulfate (500 μg/ml). To prepare membranes for radioligand binding experiments, cells were rinsed twice with phosphate-buffered saline (138 mM NaCl, 4.1 mM KCl, 5.1 mM Na2PO4, 1.5 mM KH2PO4, 11.1 mM glucose, pH 7.4). Cells were transferred from plates to polypropylene tubes (16×100 mm), centrifuged at 1,200×g for 5 min and were frozen at −80° C. until assay. Following centrifugation, pellets were resuspended by homogenization in buffer consisting of 50 mM Tris (pH 7.7 at 25° C.), 120 mM NaCl and 5 mM KCl and then centrifuged at 32,000×g for 10 min. Following centrifugation, supernatants were discarded and pellets were resuspended in buffer consisting of 50 mM Tris (pH 7.4 at 25° C.), 150 mM NaCl and 5 mM KCl. Membrane homogenates (200 μl/plate) were incubated with 1 nM [^3H]-citalopram (specific activity=85 Ci/mmol) and increasing concentrations of test compounds for 1 hr at 25° C. in a total volume of 250 μl. The assay buffer consisted of 50 mM Tris (pH 7.4 at 25° C.), 120 mM NaCl and 5 mM KCl (pH 7.4 with conc. HCl). Plates were incubated for 1 hr at 25° C., then filtered through 0.5% PEI treated Whatman GF/B filters using a Brandel cell harvester. Filters were washed three times with 3 ml of ice-cold tris wash buffer. Non-specific binding was defined with 10 μM fluoxetine. Amount of radioligand bound in the presence and absence of competitor was analyzed by plotting (−)log drug concentration versus the amount of radioligand specifically bound. The midpoint of the displacement curve (IC50, nM), signifies the potency. Ki values can be calculated using the method of Cheng and Prusoff (Cheng and Prusoff, Biochemical Pharmacology, Vol 22, pp. 3099–3108, Pergamon Press (1973)).

[2] = molecular target: T2, neurokinin-1 (NK-1) receptor (Homo sapiens, UniProt P25103); assay: NK-1 Binding assay ([125I] Substance P competition, U373 cell membranes); conditions: Bolton Hunter labeled [125I] Substance P, 30 min at 20° C.
T2 construct: endogenously expresses the neurokinin-1 (NK-1) receptor; endogenous in cells; host or cells: U373 human glioblastoma-astrocytoma cells (membranes)
T2 sequence (P25103 whole entry): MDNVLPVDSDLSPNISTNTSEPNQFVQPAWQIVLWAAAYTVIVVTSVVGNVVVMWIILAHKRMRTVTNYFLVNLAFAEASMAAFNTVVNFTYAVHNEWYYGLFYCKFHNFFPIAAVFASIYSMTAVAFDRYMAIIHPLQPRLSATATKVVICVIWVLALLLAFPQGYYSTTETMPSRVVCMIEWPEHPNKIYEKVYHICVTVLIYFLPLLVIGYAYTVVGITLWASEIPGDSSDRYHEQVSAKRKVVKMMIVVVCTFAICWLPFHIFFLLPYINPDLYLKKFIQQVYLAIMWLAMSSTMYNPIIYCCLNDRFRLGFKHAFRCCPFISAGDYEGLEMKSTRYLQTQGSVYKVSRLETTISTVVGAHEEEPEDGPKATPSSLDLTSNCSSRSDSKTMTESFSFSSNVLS
Method: NK-1 Binding assay. U373 cells, a human glioblastoma-astrocytoma cell line that endogenously expresses the neurokinin-1 (NK-1) receptor, were grown in a monolayer culture at 37° C. in 5% CO2 and fed with Minimum Essential Medium (MEM) supplemented with 10% fetal bovine serum. Membranes were prepared as follows: Cells were washed twice with ice-cold phosphate-buffered saline (pH 7.4) and then incubated for 5–10 minutes with ice-cold 10 mM Tris buffer (pH 7.4) containing 5 mM EDTA. Cells were removed from plates, homogenized, and centrifuged at 32,000×g for 20 minutes. The resulting supernatant was discarded, and the pellet resuspended by homogenization in 50 mM Tris buffer (pH 7.4) containing 1 mM EDTA and centrifuged at 32,000×g for 20 minutes. The resulting supernatant was discarded, and the pellet resuspended by homogenization in NK-1 binding assay buffer (50 mM Tris-HCL (pH 7.4), 3 mM MnCl2, 200 μg/ml BSA, 5 μg/ml chymostatin, 40 μg/ml bacitracin and 4 μg/ml leupeptin).
On the day of an experiment the membrane preparation was thawed, homogenized and diluted with NK-1 binding assay buffer to the appropriate concentration. Competition binding assays were performed in 96 well plate format by incubating membranes (5–10 μg/well) with Bolton Hunter labeled [^125I] Substance P, at a concentration of […], and concentrations of drugs ranging from 10000 to 0.01 nM. Samples were incubated for 30 min at 20° C. then filtered through GF/B glass fiber filters (pretreated with 1% polyethyleneimine and 0.3% Triton X-100) using a Brandel cell harvester. The filters were then washed with 10 ml ice cold 50 mM Tris-HCL (pH 7.4) containing 3 mM MgCl2. Non-specific was defined in the presence of 2 μM L-733,060 (a non-peptide NK-1 antagonist). The amount of radioligand bound in the presence and absence of competitor was analyzed by plotting (−)log drug concentration versus the amount of radioligand specifically bound. The midpoint of the displacement curve (IC50, nM), signifies the potency. Ki values can be calculated using the method of Cheng and Prusoff (Cheng and Prusoff, Biochemical Pharmacology, Vol 22, pp. 3099–3108, Pergamon Press (1973)).

T1 sequence (P31645 whole entry): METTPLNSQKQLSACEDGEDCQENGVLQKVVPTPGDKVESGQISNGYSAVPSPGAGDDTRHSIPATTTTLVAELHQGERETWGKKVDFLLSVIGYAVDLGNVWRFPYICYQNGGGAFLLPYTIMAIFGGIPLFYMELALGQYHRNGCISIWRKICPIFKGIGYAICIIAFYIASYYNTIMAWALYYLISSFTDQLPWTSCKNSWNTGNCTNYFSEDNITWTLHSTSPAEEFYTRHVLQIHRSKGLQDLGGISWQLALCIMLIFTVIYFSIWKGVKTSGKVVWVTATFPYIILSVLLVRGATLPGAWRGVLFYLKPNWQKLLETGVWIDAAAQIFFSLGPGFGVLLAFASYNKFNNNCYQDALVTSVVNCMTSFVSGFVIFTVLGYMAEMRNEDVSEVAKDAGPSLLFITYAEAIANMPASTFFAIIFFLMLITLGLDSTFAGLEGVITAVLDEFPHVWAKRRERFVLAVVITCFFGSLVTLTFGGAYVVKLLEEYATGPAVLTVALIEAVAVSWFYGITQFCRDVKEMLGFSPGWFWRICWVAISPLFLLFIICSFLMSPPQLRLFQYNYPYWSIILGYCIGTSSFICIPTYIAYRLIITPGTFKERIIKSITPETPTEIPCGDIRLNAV

| IC50 [1] [nM] | IC50 [2] [nM] | Structure (SMILES) |
| --- | --- | --- |
| 1 to 100 | 1 to 100 | NCCC(O)(COCc1cc(Br)cc(Br)c1)c1ccccc1 (stereo not drawn) [Example 68, 1-(3,5-dibromobenzyloxy)-4-amino-2-phenylbutan-2-ol] |
| 100 to 300 | > 300 | CCCc1ccc(C(O)(CCN)COCc2cc(C(F)(F)F)cc(C(F)(F)F)c2)cc1 (stereo not drawn) [Example 35, 1-(3,5-bis(trifluoromethyl)benzyloxy)-4-amino-2-(4-propylphenyl)butan-2-ol] |
| > 300 | 100 to 300 | NCCC(O)(COCc1cc(C(F)(F)F)cc(C(F)(F)F)c1)c1ccccc1 (racemic) [Example 7, 1-(3,5-bis(trifluoromethyl)benzyloxy)-4-amino-2-phenylbutan-2-ol] |
| 1 to 100 | 1 to 100 | Cc1cccc(C(O)(CCN)COCc2cc(C(F)(F)F)cc(C(F)(F)F)c2)c1C (stereo not drawn) [Example 26, 1-(3,5-bis(trifluoromethyl)benzyloxy)-4-amino-2-(2,3-dimethylphenyl)butan-2-ol] |
| 100 to 300 | 100 to 300 | CC(CN)(COCc1cc(C(F)(F)F)cc(C(F)(F)F)c1)c1ccccc1 (stereo not drawn) [Example 77, 1-(3,5-bis(trifluoromethyl)benzyloxy)-3-amino-2-methyl-2-phenylpropane] |
| 1 to 100 | 1 to 100 | CN(C)CCC(COCc1cc(C(F)(F)F)cc(C(F)(F)F)c1)c1ccccc1 (stereo not drawn) [Example 73, 1-(3,5-bis(trifluoromethyl)benzyloxy)-4-dimethylamino-2-phenylbutane] |
| 1 to 100 | 100 to 300 | Cc1ccc(C(O)(CCN)COCc2cc(C(F)(F)F)cc(C(F)(F)F)c2)c2ccccc12 (stereo not drawn) [Example 22, 1-(3,5-bis(trifluoromethyl)benzyloxy)-4-amino-2-(4-methylnaphthalen-1-yl)butan-2-ol] |
| 100 to 300 | 100 to 300 | NCCC(O)(COCc1cccc(C(F)(F)F)c1)c1ccccc1 (stereo not drawn) [Example 55, 1-(3-(trifluoromethyl)benzyloxy)-4-amino-2-phenylbutan-2-ol] |
| 1 to 100 | > 300 | NCCC(O)(COCc1cccc(OC(F)(F)F)c1)c1ccccc1 (stereo not drawn) [Example 69, 1-(3-(trifluoromethoxy)benzyloxy)-4-amino-2-phenylbutan-2-ol] |
| 1 to 100 | 100 to 300 | COc1ccc(C(O)(CCN)COCc2cc(C(F)(F)F)cc(C(F)(F)F)c2)c(C)c1 (stereo not drawn) [Example 28, 1-(3,5-bis(trifluoromethyl)benzyloxy)-4-amino-2-(4-methoxy-2-methylphenyl)butan-2-ol] |
| 1 to 100 | > 300 | COc1cccc(COCC(O)(CCN)c2ccccc2)c1 (stereo not drawn) [Example 63, 1-(3-methoxybenzyloxy)-4-amino-2-phenylbutan-2-ol] |
| 1 to 100 | 1 to 100 | NCCC(O)(COCc1cc(C(F)(F)F)cc(C(F)(F)F)c1)c1cccc(Cl)c1 (stereo not drawn) [Example 21, 1-(3,5-bis(trifluoromethyl)benzyloxy)-4-amino-2-(3-chlorophenyl)butan-2-ol] |
| 1 to 100 | 1 to 100 | CNCCC(COCc1cc(C(F)(F)F)cc(C(F)(F)F)c1)c1ccccc1 (stereo not drawn) [Example 72, 1-(3,5-bis(trifluoromethyl)benzyloxy)-4-methylamino-2-phenylbutane] |
| 100 to 300 | > 300 | NCCC(O)(COCc1cccc(F)c1)c1ccccc1 (stereo not drawn) [Example 58, 1-(3-fluorobenzyloxy)-4-amino-2-phenylbutan-2-ol] |
| 1 to 100 | 1 to 100 | Cc1ccc(C(O)(CCN)COCc2cc(C(F)(F)F)cc(C(F)(F)F)c2)c(C)c1 (stereo not drawn) [Example 30, 1-(3,5-bis(trifluoromethyl)benzyloxy)-4-amino-2-(2,4-dimethylphenyl)butan-2-ol] |
| 100 to 300 | 1 to 100 | NCCC(O)(COCc1cc(C(F)(F)F)cc(C(F)(F)F)c1)c1ccc(Cl)c(Cl)c1 (stereo not drawn) [Example 10, 1-(3,5-bis(trifluoromethyl)benzyloxy)-4-amino-2-(3,4-dichlorophenyl)butan-2-ol] |
| 1 to 100 | 1 to 100 | NCCC(O)(COCc1cc(C(F)(F)F)cc(C(F)(F)F)c1)c1ccccc1 (stereo not drawn) [Example 4, 1-(3,5-bis(trifluoromethyl)benzyloxy)-4-amino-2-phenylbutan-2-ol] |
| 1 to 100 | 1 to 100 | NCCC(O)(COCc1cc(C(F)(F)F)cc(C(F)(F)F)c1)c1ccc(Cl)cc1 (stereo not drawn) [Example 42, 1-(3,5-bis(trifluoromethyl)benzyloxy)-4-amino-2-(4-chlorophenyl)butan-2-ol] |
| 100 to 300 | > 300 | NCCC(O)(COCc1ccc(F)cc1)c1ccccc1 (stereo not drawn) [Example 59, 1-(4-fluorobenzyloxy)-4-amino-2-phenylbutan-2-ol] |
| 1 to 100 | 1 to 100 | Cc1cc(C)cc(C(O)(CCN)COCc2cc(C(F)(F)F)cc(C(F)(F)F)c2)c1 (stereo not drawn) [Example 18, 1-(3,5-bis(trifluoromethyl)benzyloxy)-4-amino-2-(3,5-dimethylphenyl)butan-2-ol] |
| 1 to 100 | 100 to 300 | CCc1ccc(C(O)(CCN)COCc2cc(C(F)(F)F)cc(C(F)(F)F)c2)cc1 (stereo not drawn) [Example 38, 1-(3,5-bis(trifluoromethyl)benzyloxy)-4-amino-2-(4-ethylphenyl)butan-2-ol] |
| 1 to 100 | 100 to 300 | NCCC(O)(CSCc1cc(C(F)(F)F)cc(C(F)(F)F)c1)c1ccccc1 (stereo not drawn) [Example 80, 1-(3,5-bis(trifluoromethyl)benzylthio)-4-amino-2-phenylbutane-2-ol] |
| 1 to 100 | 1 to 100 | Cc1ccccc1C(O)(CCN)COCc1cc(C(F)(F)F)cc(C(F)(F)F)c1 (stereo not drawn) [Example 43, 1-(3,5-bis(trifluoromethyl)benzyloxy)-4-amino-2-o-tolylbutan-2-ol] |
| 1 to 100 | 1 to 100 | Cc1ccc(C(O)(CCN)COCc2cc(C(F)(F)F)cc(C(F)(F)F)c2)cc1F (stereo not drawn) [Example 33, 1-(3,5-bis(trifluoromethyl)benzyloxy)-4-amino-2-(3-fluoro-4-methylphenyl)butan-2-ol] |
| 100 to 300 | 1 to 100 | CNCCC(C)(COCc1cc(C(F)(F)F)cc(C(F)(F)F)c1)c1ccccc1 (stereo not drawn) [Example 75, 1-(3,5-bis(trifluoromethyl)benzyloxy)-4-methylamino-2-methyl-2-phenylbutane] |
| > 300 | > 300 | NCCC(O)(COCc1ccc(OC(F)(F)F)cc1)c1ccccc1 (stereo not drawn) [Example 49, 1-(4-(trifluoromethoxy)benzyloxy)-4-amino-2-phenylbutan-2-ol] |
| 100 to 300 | 1 to 100 | NCCC(COCc1cc(C(F)(F)F)cc(C(F)(F)F)c1)c1ccccc1 (stereo not drawn) [Example 71, 1-(3,5-bis(trifluoromethyl)benzyloxy)-4-amino-2-phenylbutane] |
| 100 to 300 | 1 to 100 | NCCC(O)(COCc1cc(C(F)(F)F)cc(C(F)(F)F)c1)c1cc(F)cc(F)c1 (stereo not drawn) [Example 19, 1-(3,5-bis(trifluoromethyl)benzyloxy)-4-amino-2-(3,5-difluorophenyl)butan-2-ol] |
|  | 100 to 300 | NCCC(O)(CNCc1cc(C(F)(F)F)cc(C(F)(F)F)c1)c1ccccc1 (stereo not drawn) [Example 81] |
